Where two headings read alike, the source gives them in different places.
Legend:
SARS-CoV-2 [1] = assay: Anti-SARS-CoV-2 activity in Vero cells (virus yield inhibition); assay type: cell-based
SARS-CoV-2 [2] = assay: Anti-SARS-CoV-2 activity in Calu3 cells (virus yield inhibition); assay type: cell-based; details: Severe acute respiratory syndrome coronavirus 2, Calu-3, Table 1
[3] = Cytotoxicity in Huh7 cells; assay type: cell-based; details: human
[4] = assay type: in vitro ADME; details: 10 μM
Method: An aliquot of 450 μL of human, mouse or hamster plasma were exposed to 10 μM of compound and incubated at 37° C. At 0, 5, 15, 30, 60, 90 and 120 min, 50 μL of plasma sample was mixed with 200 μL of ice-cold methanol (70%). 50 μL supernatant was dried and reconstituted in 100 μL H2O. Propantheline bromide was used as positive control. The supernatant was then subjected to LC-MS analysis (LC-MS condition: Instrument: Thermo TSQ Quantiva. Column: Kinetex […] (50×2.1 mm, […]). LC buffers: A): 0.1% formic acid, and B): acetonitrile. MRM methods: (269.2-112 positive), Indinavir (IS, 614.4-421.2 positive, IS)). The stability results are shown in FIGS. 2-4 (human plasma, mouse plasma and hamster plasma, respectively). Compound A is stable in human and mouse plasma up to 2 hours and stable up to […] in hamster plasma. Compound 23 was converted to compound A in hamster plasma in less than 5 min.

in vitro [5] = details: human
in vitro [6] = details: human, Caco-2
[7] = Cytotoxicity in Vero cells; details: African green monkey, Vero kidney cells

In the case of N#C[C@@]1(n2ccc(N)nc2=O)O[C@H](CO)[C@@H](O)[C@H]1O [Compound A, (2R,3R,4S,5R)-2-(4-amino-2-oxopyrimidin-1(2H)-yl)-3,4-dihydroxy-5-(hydroxymethyl)-tetrahydrofuran-2-carbonitrile], the EC50 (SARS-CoV-2 [1]; Severe acute respiratory syndrome coronavirus 2, Table 1, read-out: Anti-SARS-CoV-2 Activity (Vero) EC50) is reported as 600 nM, the EC90 (SARS-CoV-2 [1]; Severe acute respiratory syndrome coronavirus 2, Table 1, read-out: Anti-SARS-CoV-2 Activity (Vero) EC90) is reported as 2300 nM and the EC50 (SARS-CoV-2 [2]) is reported as 20 nM. For the same molecule, the EC90 (SARS-CoV-2 [2]) was 200 nM, the CC50 [3] was greater than 100000 nM and the “stable in plasma up to” value ([4]; hamster) was “up to 24 h”. The “stable in plasma up to” value ([4]; human) was “up to 2 hours”, the “stable in plasma up to” value ([4]; mouse) was “up to 2 hours” and the CC50 (in vitro [5]) was greater than 100000 nM. It also gave a CC50 (in vitro [6]) greater than 100000 nM and a CC50 [7] greater than 100000 nM.

— US20250114389A1, “NUCLEOSIDES AND NUCLEOTIDES ANALOGS AS ANTIVIRAL AGENTS” (Emory University, priority 2021, published 2025)
